Results as given in patent publication US5192799A, “Coumaran group containing amine compounds and their acid addition salts and quaternary ammonium salts and the use thereof as anti arrhythmic agents and as psychotropic agents” (Mitsui Petrochemical Industries, Ltd., priority 1987, dated 1993).
Where two headings read alike, the source gives them in different places.

What was measured:
[1] = tested on: right ventricle (effective refractory period); assay: Activity on ERP of the right ventricle; format: in vivo, adult mongrel dog; conditions: Canis lupus familiaris, ERP before drug = 100%, read-out: ERP % (ERP prolonging activity); for change in vivo at 3 mg/kg: 3 mg/kg i.v.
Protocol: The pharmacological effects of the compounds of this invention represented by general formula (1) were studied. By using the heart of an adult mongrel dog, the activity of the compounds of general formula (1) were tested in vitro and in vivo. The heart of an anaethetized dog was extracted and suspended in a chamber at 37° C. in Tyrode's solution. The drug was added to Tyrode's solution being perfused through the heart specimen, and electrophysiological effects of the drug on cardiac action potential duration (APD) and maximum rate of depolarization were studied. An anaethetized dog was cut open at the chest. […] In an anaethetized and open-chested adult mongrel dug, a silver-silver chloride electrode was sutured to the right ventricle, and ventricular pacing was performed at a stimulation interval of 400 msec for a duration time of 4 msec, twice diastolic threshold. Then, a small amount of alcohol was injected through the sinus artery to extinguish the pacemaker activity, and under ventricular pacing, ERP was measured. Ten stimulations were taken as one train, and the interval between trains when the response to the first stimulation disappeared was defined as ERP. […] ERP before drug administration (intravenously or intraduodenally) was taken as 100%, and ERP prolonging activity of the drugs was expressed by %.

[2] = tested on: atrial fibrillation; assay: Atrial fibrillation model; format: in vivo, mongrel dog; conditions: dose of 0.3 to 3 mg/kg or 1 to 10 mg/kg
Source text: Furthermore, the anaethetized dog was cut open at the chest. Bipolar electrodes were sutured to the right atrial surface, and stimulation electrodes were attached to the vagus nerves at both sides of the cervical region. Atrial fibrillation was induced by the method of Goldberger et al. A. L. Goldberger et al.: […] Further, the anaethetized dog was cut open at the chest. Left anterior descending coronary artery was ligated, and ninety minutes later, reperfused to prepare a myocardial infarction which was liable to develop tachycardia. At that time, a bipolar plunge electrode was placed in the interventricular septum near the ligated site. Several days after the operation, programmed electrical stimulation was applied to induce tachycardia. The effect of the drug to cause disappear of tachycardia was examined. In an anaethetized and open-chested mongrel dog, bipolar electrodes (silver and silver-silver chloride electrodes) were sutured respectively to the right atrium for stimulation and recording. The vagus nerves on both sides of the cervical region were isolated and cut, and stimulation electrodes were attached to the peripheral end. The atrial fibrillation was induced in accordance with the method of Goldberger et al. After cardiac arrest induced by stimulating the vagus nerves, electrical stimulation was applied to the right atria at a high frequency.

[3] = in vivo; conditions: mouse, in vivo
Protocol: By using male ddY-strain 5-week old mice (3 to 4 per group), the compounds of general formula (1) were each administered orally or intraperitoneally as a solution in saline or as a suspension in methyl cellulose, and 24 hours after the administration, the toxicity of the compounds was evaluated.

[4] = tested on: Purkinje fiber; assay: Effect on APD (APD75, field-stimulated right ventricular free wall); format: cell-based, adult mongrel dog; conditions: 20 minutes incubation, 37° C., 1 Hz, control before drug = 100%; for activation at 1 µg/mL / activation at 3 µg/mL / activation at 10 µg/mL: Canis lupus familiaris, purkinje, 20 min, read-out: APD75 % (percent change in APD75); for activation at 10 µg/mL: dose 10 μg/ml
How it was run: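 Right ventricular free wall from pentobarbital-anaesthetized adult mongrel dog, held in Tyrode's solution at 37° C. with 1 Hz field stimulation. Purkinje fiber action potentials recorded by intracellular glass microelectrodes; APD75 measured after 20 minutes drug perfusion, expressed as percent change versus pre-drug control (100%).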

[5] = target: T1, serotonine 2 receptor (Rattus norvegicus, UniProt P14842); assay: [3H]ketanserin binding assay (affinity for serotonine 2 receptor); design: species or system Wistar male rat; conditions: rat frontal cortex, 1 nM [3H] ketanserin, 37° C., 10 minutes
T1 construct: frontal cortex fraction prepared from the brain of a Wistar male rat; from tissue; host or cells: rat brain frontal cortex (Wistar, male), membrane fraction
Protocol: (§1) Striatal membranes fractions were prepared from a rat brain, and the affinity of the compounds of this invention on dopamine 2 receptors was determined by using [^3 H] spiperone assay from membranes fractions as an index. Moreover, frontal cortex membranes were prepared from a rat brain, and the affinity of the test drugs on serotonine 2 receptor was determined by using [^3 H] ketenserin binding assay. It was shown that the compounds of general formula (1) of the invention have marked anti-dopamine activity and anti-serotonine activity.
[^3 H] ketanserin binding assay
The affinity of the compound of the invention was determined on the basis of the ability to substitute [^3 H] ketanserin from a frontal cortex fraction prepared from the brain of a Wistar male rat.
(§2) The rat was decapitated, and the brain was obtained. The frontal cortex was homogenized in 40 volumes of 50 mM Tris-HCl buffer (pH 7.6), and then centrifuged. The pellets were again homogenized in 100 volumes of the same buffer, and used in a binding test. The binding test was conducted by the following procedure.
(§3) The frontal cortex (original tissue weight 1 mg/ml), 100 microliters of a test drug and 1 nM of [^3 H] ketanserin were incubated at 37° C. for 10 minutes in 50 mM Tris-HCl buffer (pH 7.6). Then, the reaction mixture was suction-filtered through a glass fiber filter (Watmann GF/B) and washed with a buffer three times.
(§4) The filter was put in a scintillation cocktail (ACSII, Amersham Co.), and after mixing, left to stand overnight. The radioactivity held on the filter was measured by a liquid scintillation counter. The nonspecific binding was measured in the presence of 1 μM of methysergide. The concentration of the test drug which inhibited 50% of a specific binding was determined from the graph and defined as IC5. Ki was calculated from the following equation. [formula]

[6] = target: T2, dopamine 2 receptor (Rattus norvegicus, UniProt P61169); assay: [3H]spiperone binding assay (affinity for dopamine 2 receptor); design: species or system Wistar-strain male rat; conditions: rat striatal membranes, 0.5 nM [3H] spiperone, 37° C., 10 minutes
T2 construct: membrane fractions prepared from the brain a Wistarstrain male rat; from tissue; host or cells: rat brain striatum (Wistar, male), membrane fraction
Protocol: as §1
[^3 H]spiperone binding assay
The affinity of the compounds of this invention to the dopamine 2 receptor was determined on the basis of the ability to substitute [^3 H] spiperone from stratal membrane fractions prepared from the brain a Wistarstrain male rat.
as §2, with “striatum” for “frontal cortex”, “50” for “100”
as §3, with “The stria” for “The frontal cortex”, “weight 20” for “weight 1”, “and 0.5” for “and 1”, “H] spiperone” for “H] ketanserin”
as §4, with “(+) butaclamol.” for “methysergide.”, “IC50.” for “IC5.”

[7] = tested on: Quipazine-induced head twitching of mice; assay: Quipazine-induced head twitching (anti-5-HT activity); format: in vivo, ddY-strain male mice; conditions: 1 mg/kg i.p.
Source text: The effects of the compounds of general formula (1) on the apomorphine-induced climbing behavior of mice (i.e. anti-dopamine activity) and the effects of the test drugs of the invention on the quipazine-induced head twitching of mice (i.e. anti-serotonine activity) were also examined. It was made clear that the compounds of this invention represented by general formula (1) have marked anti-dopamine activity and anti-serotonine activity both in vivo and in vitro, and have potentiality as an anti-psychotic agent, an anti-depressant, an antianxiety agent, a sedative or as an anti-dementia agent.
By using 5 week old ddY-strain male mice (10 per group), the anti-dopamine (anti-DA hereinafter) and anti-serotonine (anti-5-HT hereinafter) activities were examined by the following procedures. All does of test drugs were adjusted to 1 mg/ml. They were each suspended in 0.5% carboxymethyl cellulose (CMC)/saline so that their volume administered was 0.1 ml/10 g. The suspension was administered intraperitoneally.
2. Effect of quipazine on the head twitch (anti-5-HT activity):
Quipazine (3 mg/kg) was administered intraperitoneally 30 minutes after the intraperitoneal administration of each test drug. After the lapse of 10 minutes, 20 minutes and 30 minutes from then, the number of head twitchings of each mouse which occurred for 2 minutes was counted.

[8] = po, LD50 p.o., p.o., 24 hours after administration, male ddY mice

T1 sequence (P14842 whole entry): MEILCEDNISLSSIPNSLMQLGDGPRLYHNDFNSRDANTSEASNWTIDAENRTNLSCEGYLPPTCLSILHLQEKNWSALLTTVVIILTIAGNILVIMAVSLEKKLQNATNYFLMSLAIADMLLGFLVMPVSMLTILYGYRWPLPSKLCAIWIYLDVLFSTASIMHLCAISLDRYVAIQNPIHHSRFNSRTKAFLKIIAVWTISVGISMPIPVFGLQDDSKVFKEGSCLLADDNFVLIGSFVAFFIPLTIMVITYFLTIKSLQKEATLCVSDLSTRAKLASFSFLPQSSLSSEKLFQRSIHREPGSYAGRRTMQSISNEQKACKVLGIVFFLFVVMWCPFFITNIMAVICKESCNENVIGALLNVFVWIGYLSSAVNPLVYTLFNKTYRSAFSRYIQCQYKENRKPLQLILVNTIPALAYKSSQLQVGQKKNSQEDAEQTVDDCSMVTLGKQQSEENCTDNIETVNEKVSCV
T2 sequence (P61169 whole entry): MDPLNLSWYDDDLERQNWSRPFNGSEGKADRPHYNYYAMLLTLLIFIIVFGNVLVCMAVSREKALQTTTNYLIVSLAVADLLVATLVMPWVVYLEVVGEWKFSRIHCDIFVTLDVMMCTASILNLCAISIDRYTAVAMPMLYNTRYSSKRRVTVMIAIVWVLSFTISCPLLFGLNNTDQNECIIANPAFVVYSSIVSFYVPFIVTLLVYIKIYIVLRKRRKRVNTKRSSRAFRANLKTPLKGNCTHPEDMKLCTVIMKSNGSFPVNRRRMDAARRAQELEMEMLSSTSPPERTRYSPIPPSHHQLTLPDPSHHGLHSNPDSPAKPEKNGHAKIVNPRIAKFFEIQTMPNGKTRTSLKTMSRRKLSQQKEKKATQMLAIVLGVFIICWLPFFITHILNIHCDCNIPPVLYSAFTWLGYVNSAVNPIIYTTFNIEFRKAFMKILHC

| SMILES | change in vivo at 0.1 mg/kg ([1]; iv, 0.1 mg/kg i.v.) [%] | change in vivo at 0.3 mg/kg ([1]; iv, 0.3 mg/kg i.v.) [%] | change in vivo at 1 mg/kg ([1]; iv, 1 mg/kg i.v.) [%] | disappearance of atrial fibrillation [2] | LD50 at 24 h [3, 8] [mg/kg] | activation at 1 µg/mL ([4]; dose 1 μg/ml) [%] | activation at 3 µg/mL ([4]; dose 3 μg/ml) [%] | activation at 10 µg/mL [4] [%] | change in vivo at 3 mg/kg ([1]; iv) [%] | Ki [5] [nM] | Ki [6] [nM] | further results |
| --- | --- | --- | --- | --- | --- | --- | --- | --- | --- | --- | --- | --- |
| CCCCCCCN(CC)CCCOc1ccc2c(c1)OCC2=O.Cl [Compound 102, 6-3-(N-ethyl-N-heptylamino)propyloxycoumaran-3-one hydrochloride] | 11.7 ± 3.2 | 21.3 ± 3.3 | 23.3 ± 2.9 | could cause disappearance fibrillation | ~300 |  |  |  |  |  |  | change in vivo at 0.1 mg/kg ([1]; 0.1 mg/kg i.d.): 0%; change in vivo at 0.3 mg/kg ([1]; 0.3 mg/kg i.d.): 13%; change in vivo at 1 mg/kg ([1]; 1 mg/kg i.d.): 27%; LD50 at 24 h ([3]; ip, LD50 i.p., i.p., 24 hours after administration, male ddY mice): ~100 mg/kg; APD75 % (percent change in APD75) ([4]; dose 1 μg/ml): 20%; APD75 % (percent change in APD75) ([4]; dose 3 μg/ml): 30% |
| CCCCN(CCCC)CCCOc1ccc2c(c1)OCC2=O [Compound 144] | 10 ± 1.7 | 15.5 ± 4.9 | 21.1 ± 6.2 | could cause disappearance fibrillation |  | 13 | 26 | 33 |  |  |  |  |
| CC1CCCN(CCCOc2ccc3c(c2)OCC3=O)C1 (stereo not shown) [Compound 1118] | 5 | 9 | 22 | could cause disappearance fibrillation | > 300 | 10 | 13 | 24 | 26 |  |  |  |
| CC1CCCC(C)N1CCCOc1ccc2c(c1)OCC2=O (stereo not shown) [Compound 1126] |  | 8 | 12 | could cause disappearance fibrillation | > 300 |  | 19 | 27 | 15 |  |  |  |
| O=C1COc2cc(OCCCN3CCC(Cc4ccccc4)CC3)ccc21 [Compound 1146] | 4 | 16 | 20 | could cause disappearance fibrillation | > 300 | 18 | 25 | 34 |  | 441 | > 400 |  |
| O=C1COc2cc(OCCCN3CCC(O)(c4ccccc4)CC3)ccc21 [Compound 1150] |  |  |  |  |  | 4 | 12 | 14 |  | 306 | > 400 | LD50 at 24 h ([3]; po): > 300 mg/kg |
| O=C1COc2cc(OCCCN3CCN(c4ccccc4)CC3)ccc21 [Compound 1256] |  |  |  |  |  |  |  |  |  | 175 | 286 | Percent inhibition of quipazine-induced head twitching [7]: 43%; Quipazine-induced head twitching ([7]; control 6.7 ± 0.8, **p < 0.05, ***p < 0.001): 3.8 ± 0.9 number/2 min. |
| CS(=O)(=O)NC1CCN(CCCOc2ccc3c(c2)OCC3=O)CC1 [Compound 1286] | 8.3 | 8.3 | 16.6 |  | > 300 |  | 7 |  | 16.6 | 475 | > 400 |  |
| O=C1COc2cc(OCCCN3CCC4(CC3)OCCO4)ccc21 [Compound 1298] |  |  |  |  | > 300 |  |  |  |  | 382 | > 400 |  |
| CC(=O)Oc1coc2cc(OCCCN3CCC(Cc4ccccc4)CC3)ccc12 [Compound 1344] |  |  |  |  |  |  |  |  |  | > 600 | > 400 |  |
